Test results reported in PubChem BioAssay AID1963978 (Molecular Pharmacology Branch, DTP, NCI, 2024).
pIC50: −log10 of the molar value.

Tested on: 616215-338-R-J1-PDC spheroids with HUVEC/MSC, viability
Test: Anticancer human tumor 616215-338-R-J1-PDC patient-derived colon adenocarcinoma cell line growth inhibition [PI3K]
Settings: for viability, T/C: stronger effect = lower value; active = viability on the fitted dose curve at most 10% of control; inactive = the rest
Description: Combinatorial screen of targeted agents with the PI3K inhibitors inavolisib, alpelisib, duvelisib, and copanlisib in multi-cell type tumor spheroids
A high-throughput screen of multi-cell type tumor spheroids was designed to identify active combinations of targeted small molecules and PI3K pathway inhibitors. Complex spheroids include a stromal component modeled by human endothelial cells (HUVEC) and fibroblasts modeled by human mesenchymal stem cells (MSCs). The concentration ranges selected for each drug and investigational agent were based upon clinically achievable concentrations if the clinical Cmax of the agent was known.
Compounds. The drugs and investigational agents: inavolisib (NSC800729), alpelisib (NSC765974), duvelisib (NSC772469), copanlisib (NSC816437), ipatasertib (NSC767898), afuresertib (NSC778305), talazoparib (NSC767125), sapanisertib (NSC764658), selumetinib (NSC741078), tovorafenib (DAY101, NSC766906), vemurafenib (NSC761431), ravoxertinib (NSC781343), sotorasib (NSC818433), MRTX1133 (NSC 836407), abemaciclib (NSC 768073), palbociclib (NSC758247), venetoclax (NSC 766270), SY5609 (NSC837396), enzalutamide (NSC755605), and darolutamide (NSC825331), were obtained from the National Cancer Institute (NCI) Developmental Therapeutics Program Chemical Repository. The FDA-approved anticancer drug set is available from the NCI Developmental Therapeutics Program. […] The stock solutions were prepared in dimethyl sulfoxide (DMSO, Sigma-Aldrich, St. Louis, MO, cat. D2650) at 800-fold the tested concentration and stored at -70 degrees C prior to their use. All drugs and investigational agents were tested over a range starting from a high concentration at or near the clinical Cmax and decreasing in half-log increments. If the clinical Cmax for an agent had not been determined, the highest concentration tested was 10 microM.
Cell Culture. All cells were maintained in an incubator at 37 degrees C and 5% CO2 with 95% humidity. The PDC lines were cultured according to standard operating procedures established by the NCI PDMR (https://pdmr.cancer.gov/sops/default.htm). All PDCs were thawed and cultured in Matrigel-coated flasks prepared with a working solution of 1X Ham's F-12 nutrient mix, without supplementation (Invitrogen, Waltham, MA, cat. 11765054), 100 U/mL penicillin-streptomycin (Invitrogen, cat. 15140122), and 2.5% Matrigel (Corning Inc., Corning, NY, cat. 354248) for the first three passages. The 354836-022-R-J1-PDC, 475296-252-R-J1-PDC, and 997726-040-R-J2-PDC lines were cultured in 6A media, which includes advanced DMEM/F-12 (Thermo Fisher Scientific, cat. 12634028), 10 mM HEPES (Thermo Fisher Scientific, cat. 15630080), 1X GlutaMAX supplement (Thermo Fisher Scientific, cat. 35050061), 0.1 mg/mL primocin (InvivoGen, San Diego, CA, cat. ant-pm-2), 10% defined fetal bovine serum, heat inactivated (HyClone Laboratories Inc., Logan, UT, cat. SH30070.03HI), 50% L-WRN conditioned media (ATCC, cat. CRL-3276), 1.25 mM N-Acetyl-L-cysteine (Sigma-Aldrich, cat. A9165), 10 mM nicotinamide (Sigma-Aldrich, cat. N0636), 1X B-27 supplement (Thermo Fisher Scientific, cat. 17504044), 1X N-2 supplement (Thermo Fisher Scientific, cat. 17502048), and 10 microM Y-27632 dihydrochloride (Tocris Bioscience, Bristol, United Kingdom, cat. 1254). The 624824-186-R-J2-PDC line was cultured in 6C/Colon 1B media, which includes all 6A media components plus 50 ng/mL human EGF recombinant protein (Thermo Fisher Scientific, cat. PHG0311). […]

[1] = curve of first compound, second compound 0.0316 µM
[2] = curve of first compound, second compound 0.1 µM
[3] = curve of first compound, second compound 0.316 µM
[4] = curve of first compound, second compound 1 µM
[5] = second compound 0.0316 µM, first compound 0.0316 µM
[6] = second compound 0.0316 µM, first compound 0.1 µM
[7] = second compound 0.0316 µM, first compound 0.316 µM
[8] = second compound 0.0316 µM, first compound 1 µM
[9] = second compound 0.0316 µM, first compound 3.16 µM
[10] = second compound 0.0316 µM, first compound 10 µM
[11] = second compound 0.1 µM, first compound 0.0316 µM
[12] = second compound 0.1 µM, first compound 0.1 µM
[13] = second compound 0.1 µM, first compound 0.316 µM
[14] = second compound 0.1 µM, first compound 1 µM
[15] = second compound 0.1 µM, first compound 3.16 µM
[16] = second compound 0.1 µM, first compound 10 µM
[17] = second compound 0.316 µM, first compound 0.0316 µM
[18] = second compound 0.316 µM, first compound 0.1 µM
[19] = second compound 0.316 µM, first compound 0.316 µM
[20] = second compound 0.316 µM, first compound 1 µM
[21] = second compound 0.316 µM, first compound 3.16 µM
[22] = second compound 0.316 µM, first compound 10 µM
[23] = second compound 1 µM, first compound 0.0316 µM
[24] = second compound 1 µM, first compound 0.1 µM
[25] = second compound 1 µM, first compound 0.316 µM
[26] = second compound 1 µM, first compound 1 µM
[27] = second compound 1 µM, first compound 3.16 µM
[28] = second compound 1 µM, first compound 10 µM
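Also: spheroids exposed to agents for seven days before the viability read.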

Cn1ncc(Cl)c1-c1cc(C(=O)NC(CN)Cc2cccc(F)c2)sc1Cl (stereo unspecified) + Cc1nc(NC(=O)N2CCCC2C(N)=O)sc1-c1ccnc(C(C)(C)C(F)(F)F)c1
5.16: pIC50 [1]
5.40: pIC50 (curve of first compound, second compound 10 µM)
5.19: pIC50 [3]
5.04: pIC50 [4]
5.23: pIC50 (curve of first compound, second compound 3.16 µM)
inactive: viability, T/C [5] 96% | viability, T/C [6] 93.5% | viability, T/C [7] 102% | viability, T/C [8] 91.5% | viability, T/C [9] 82.5% | viability, T/C [10] 35.2% | viability, T/C [11] 102% | viability, T/C [12] 95.8% | viability, T/C [13] 92.3% | viability, T/C [14] 89% | viability, T/C [15] 76.3% | viability, T/C [16] 36.4% | viability, T/C [17] 99.4% | viability, T/C [18] 96% | viability, T/C [19] 98.8% | viability, T/C [20] 96.8% | viability, T/C [21] 67.6% | viability, T/C [22] 39.4% | viability, T/C [23] 109% | viability, T/C [24] 92.9% | viability, T/C [25] 106% | viability, T/C [26] 98.4% | viability, T/C [27] 73.7% | viability, T/C [28] 48.1% | viability, T/C (second compound 3.16 µM, first compound 0.0316 µM) 91.8% | viability, T/C (second compound 3.16 µM, first compound 0.1 µM) 95% | viability, T/C (second compound 3.16 µM, first compound 0.316 µM) 94.1% | viability, T/C (second compound 3.16 µM, first compound 1 µM) 87.7% | viability, T/C (second compound 3.16 µM, first compound 3.16 µM) 70% | viability, T/C (second compound 3.16 µM, first compound 10 µM) 32.6% | viability, T/C (second compound 10 µM, first compound 0.0316 µM) 89.9% | viability, T/C (second compound 10 µM, first compound 0.1 µM) 90.9% | viability, T/C (second compound 10 µM, first compound 0.316 µM) 86.3% | viability, T/C (second compound 10 µM, first compound 1 µM) 70.5% | viability, T/C (second compound 10 µM, first compound 3.16 µM) 59.6% | viability, T/C (second compound 10 µM, first compound 10 µM) 22.8%
5.17: pIC50 [2]

C=CC(=O)N1CCN(c2nc(=O)n(-c3c(C)ccnc3C(C)C)c3nc(-c4c(O)cccc4F)c(F)cc23)C(C)C1 (stereo unspecified) + CC(Nc1ccc2c(c1)OCCn1cc(N3C(=O)OCC3C(F)F)nc1-2)C(N)=O
< 5.00: pIC50 (curve of first compound, second compound 0.00316 µM) | pIC50 (curve of first compound, second compound 0.01 µM) | pIC50 [1] | pIC50 [2] | pIC50 [3] | pIC50 [4]
inactive: viability, T/C (second compound 0.00316 µM, first compound 0.0316 µM) 95.9% | viability, T/C (second compound 0.00316 µM, first compound 0.1 µM) 101% | viability, T/C (second compound 0.00316 µM, first compound 0.316 µM) 86.8% | viability, T/C (second compound 0.00316 µM, first compound 1 µM) 103% | viability, T/C (second compound 0.00316 µM, first compound 3.16 µM) 100% | viability, T/C (second compound 0.00316 µM, first compound 10 µM) 87.5% | viability, T/C (second compound 0.01 µM, first compound 0.0316 µM) 91.8% | viability, T/C (second compound 0.01 µM, first compound 0.1 µM) 100% | viability, T/C (second compound 0.01 µM, first compound 0.316 µM) 84.2% | viability, T/C (second compound 0.01 µM, first compound 1 µM) 98.1% | viability, T/C (second compound 0.01 µM, first compound 3.16 µM) 99.1% | viability, T/C (second compound 0.01 µM, first compound 10 µM) 95.6% | viability, T/C [5] 102% | viability, T/C [6] 106% | viability, T/C [7] 110% | viability, T/C [8] 103% | viability, T/C [9] 95.6% | viability, T/C [10] 90.9% | viability, T/C [11] 89.8% | viability, T/C [12] 92.6% | viability, T/C [13] 91.1% | viability, T/C [14] 97.3% | viability, T/C [15] 98% | viability, T/C [16] 84.2% | viability, T/C [17] 114% | viability, T/C [18] 99.3% | viability, T/C [19] 95.7% | viability, T/C [20] 100% | viability, T/C [21] 97.8% | viability, T/C [22] 105% | viability, T/C [23] 101% | viability, T/C [24] 96.7% | viability, T/C [25] 105% | viability, T/C [26] 97.1% | viability, T/C [27] 90.6% | viability, T/C [28] 81.6%

C[C@@H](NC(=O)c1ncnc(N)c1Cl)c1ncc(C(=O)Nc2cc(C(F)(F)F)c(Cl)cn2)s1
< 5.00: pIC50 (curve of compound)
inactive: viability, T/C (compound 0.0316 µM) 103% [middle of 4 runs] | viability, T/C (compound 0.1 µM) 92.3% [middle of 4 runs] | viability, T/C (compound 0.316 µM) 112% [middle of 4 runs] | viability, T/C (compound 1 µM) 106% [middle of 4 runs] | viability, T/C (compound 3.16 µM) 109% [middle of 4 runs] | viability, T/C (compound 10 µM) 86.8% [middle of 4 runs]
